Experimental data as given in ChEMBL document CHEMBL6078643, “Palladium-Mediated Bioorthogonal System for Prodrug Activation of N-Benzylbenzamide-Containing Tubulin Polymerization Inhibitors for the Treatment of Solid Tumors” (J Med Chem, 2024).
pIC50: −log10 of the molar value. Active and inactive are the calls of the source. The rule behind the calls is not given here.

Experiments:
Tubulin (Homo sapiens) [1] = target: T1, Tubulin (Homo sapiens) (UniProt P68371+Q9H4B7+P0DPH7+P68366+Q13509+Q71U36+P04350+Q3ZCM7+P07437+P68363+Q9BQE3+Q6PEY2+Q13885+Q9BVA1+Q9BUF5); test: Inhibition of tubulin polymerization in human K562 cells assessed as decrease in polymerized alpha tubulin level at 80 nM incubated for 24 hrs in presence of palladium resins by Western blotting analysis; format: cell-based
[2] = Toxicity in Balb/c mouse xenografted with human HepG2 cells assessed as effect on spleen at 20 mg/kg, iv administered daily in presence of palladium resins for 14 days by H and E staining based analysis; format: organism-based; settings: in vivo, 336 h, time 14 day
Tubulin (Homo sapiens) [3] = target: T1, Tubulin (Homo sapiens); test: In vivo inhibition of tubulin polymerization in human HepG2 cells xenografted in Balb/c mouse assessed as decrease in beta tubulin expression at 20 mg/kg, iv administered daily for 14 days in presence of palladium resins incubated for 24 hrs by Western blot analysis; format: functional, organism-based; settings: time 14.0 day
Tubulin (Homo sapiens) [4] = target: T1, Tubulin (Homo sapiens); test: Disruption of microtubule organization in human K562 cells assessed as appearance of slim microtubules at 80 nM incubated for 72 hrs by DAPI staining based confocal microscopic analysis; format: cell-based
Tubulin (Homo sapiens) [5] = target: T1, Tubulin (Homo sapiens); test: Inhibition of tubulin polymerization in human HepG2 cells assessed as decrease in polymerized alpha tubulin level at 80 nM incubated for 24 hrs in presence of palladium resins by Western blotting analysis; format: cell-based
HepG2 [6] = test: Select factor, ratio of test compound IC50 to 5-fluoro-N-(3-hydroxy-4-methoxybenzyl)-2-morpholinobenzamide IC50 for antiproliferative activity against human HepG2 cells assessed as reduction in cell viability incubated for 72 hrs by CCK-8 assay; format: functional
K562 [7] = test: Induction of apoptosis in human K562 cells assessed as late apoptotic cells at 80 nM incubated for 72 hrs by Annexin V-APC staining based flow cytometric analysis (reference value: 1.36%); format: functional
HepG2 [8] = test: Antiproliferative activity against human HepG2 cells assessed as reduction in cell viability incubated for 72 hrs by CCK-8 assay; format: functional, cell-based; settings: HepG2, 72 h
Tubulin (Homo sapiens) [9] = target: T1, Tubulin (Homo sapiens); test: Disruption of microtubule organization in human K562 cells at 80 nM incubated for 72 hrs in presence of palladium resins by DAPI staining based confocal microscopic analysis; format: cell-based
K562 [10] = test: Induction of apoptosis in human K562 cells assessed as early apoptotic cells at 80 nM incubated for 72 hrs in presence of palladium resins by Annexin V-APC staining based flow cytometric analysis (reference value: 2.78%); format: functional
HepG2 [11] = test: Antitumor activity against human HepG2 cells xenografted in Balb/c mouse assessed as cell necrosis at 20 mg/kg, iv administered daily for 14 days in presence of palladium resins by TUNEL staining based analysis; format: functional, organism-based; settings: time 14.0 day
[12] = Toxicity in Balb/c mouse xenografted with human HepG2 cells assessed as effect on heart at 20 mg/kg, iv administered daily in presence of palladium resins for 14 days by H and E staining based analysis; format: organism-based; settings: in vivo, 336 h, time 14 day
[13] = Toxicity in Balb/c mouse xenografted with human HepG2 cells assessed as change in body weight at 20 mg/kg, iv administered daily in presence of palladium resins for 14 days and measured every 2 days; format: organism-based; settings: in vivo, 336 h, time 14 day
K562 [14] = test: Induction of apoptosis in human K562 cells assessed as viable cells at 80 nM incubated for 72 hrs in presence of palladium resins by Annexin V-APC staining based flow cytometric analysis (reference value: 94.21%); format: functional; settings: read-out: Activity
K562 [15] = test: Induction of apoptosis in human K562 cells assessed as nucleus fragmentation at 80 nM incubated for 72 hrs in presence of palladium resins by Hoechst 33342 staining based fluorescent microscopic analysis; format: functional, cell-based
K562 [16] = test: Induction of apoptosis in human K562 cells assessed as viable cells at 80 nM incubated for 72 hrs by Annexin V-APC staining based flow cytometric analysis (reference value: 94.21%); format: functional; settings: read-out: Activity
HepG2 [17] = test: Antiproliferative activity against human HepG2 cells at 100 nM incubated for 72 hrs in presence of palladium resins by CCK-8 assay; format: functional, cell-based
K562 [18] = test: Antiproliferative activity against human K562 cells assessed as reduction in cell viability incubated for 72 hrs by CCK-8 assay; format: functional, cell-based; settings: K562, 72 h
Tubulin (Homo sapiens) [19] = target: T1, Tubulin (Homo sapiens); test: Inhibition of tubulin polymerization in human HepG2 cells assessed as decrease in beta tubulin expression at 80 nM incubated for 24 hrs in presence of palladium resins by Western blotting analysis; format: cell-based
[20] = target: Bcr/Abl fusion protein (Homo sapiens) (UniProt P00519+P11274); test: Inhibition of Bcr-Abl in human K562 cells at 80 nM incubated for 24 hrs in presence of palladium resins by Western blotting analysis; format: cell-based
K562 [21] = test: Induction of cell cycle arrest in human K562 cells assessed as accumulation of cells at S phase at 80 nM incubated for 72 hrs by PI staining based flow cytometric analysis ( Rvb = 14.04 %); format: functional
K562 [22] = test: Antiproliferative activity against human K562 cells at 100 nM incubated for 72 hrs in presence of palladium resins by CCK-8 assay; format: functional, cell-based
Tubulin (Homo sapiens) [23] = target: T1, Tubulin (Homo sapiens); test: In vivo inhibition of tubulin polymerization in human HepG2 cells xenografted in Balb/c mouse assessed as decrease in alpha tubulin expression at 20 mg/kg, iv administered daily for 14 days in presence of palladium resins incubated for 24 hrs by Western blot analysis; format: functional, organism-based; settings: time 14.0 day
K562 [24] = test: Cytotoxicity against human K562 cells assessed as parent drug 5-fluoro-N-(3-hydroxy-4-methoxybenzyl)-2-morpholinobenzamide mediated decrease in cell viability at 100 nM in presence of palladium resins incubated for 72 hrs by CCK-8 assay; format: functional, cell-based
[25] = Toxicity in Balb/c mouse xenografted with human HepG2 cells assessed as effect on liver at 20 mg/kg, iv administered daily in presence of palladium resins for 14 days by H and E staining based analysis; format: organism-based; settings: in vivo, 336 h, time 14 day
[26] = Antiproliferative activity against human THLE-2 cells assessed as reduction in cell viability incubated for 72 hrs by CCK-8 assay; format: toxicity, cell-based
HUVEC = test: Antivascular activity against HUVEC cells assessed as inhibition of cell migration at 80 nM incubated for 24 hrs in presence of palladium resins by phase contrast microscopic analysis; format: functional, cell-based; settings: Homo sapiens
K562 [27] = test: Induction of cell cycle arrest in human K562 cells assessed as accumulation of cells at G1 phase at 80 nM incubated for 72 hrs in presence of palladium resins by PI staining based flow cytometric analysis ( Rvb = 77.46 %); format: functional
K562 [28] = test: Induction of apoptosis in human K562 cells assessed as early apoptotic cells at 80 nM incubated for 72 hrs by Annexin V-APC staining based flow cytometric analysis (reference value: 2.78%); format: functional

Sequence of Bcr/Abl fusion protein (Homo sapiens) (P00519 whole entry, looked up, the tested form may be a part): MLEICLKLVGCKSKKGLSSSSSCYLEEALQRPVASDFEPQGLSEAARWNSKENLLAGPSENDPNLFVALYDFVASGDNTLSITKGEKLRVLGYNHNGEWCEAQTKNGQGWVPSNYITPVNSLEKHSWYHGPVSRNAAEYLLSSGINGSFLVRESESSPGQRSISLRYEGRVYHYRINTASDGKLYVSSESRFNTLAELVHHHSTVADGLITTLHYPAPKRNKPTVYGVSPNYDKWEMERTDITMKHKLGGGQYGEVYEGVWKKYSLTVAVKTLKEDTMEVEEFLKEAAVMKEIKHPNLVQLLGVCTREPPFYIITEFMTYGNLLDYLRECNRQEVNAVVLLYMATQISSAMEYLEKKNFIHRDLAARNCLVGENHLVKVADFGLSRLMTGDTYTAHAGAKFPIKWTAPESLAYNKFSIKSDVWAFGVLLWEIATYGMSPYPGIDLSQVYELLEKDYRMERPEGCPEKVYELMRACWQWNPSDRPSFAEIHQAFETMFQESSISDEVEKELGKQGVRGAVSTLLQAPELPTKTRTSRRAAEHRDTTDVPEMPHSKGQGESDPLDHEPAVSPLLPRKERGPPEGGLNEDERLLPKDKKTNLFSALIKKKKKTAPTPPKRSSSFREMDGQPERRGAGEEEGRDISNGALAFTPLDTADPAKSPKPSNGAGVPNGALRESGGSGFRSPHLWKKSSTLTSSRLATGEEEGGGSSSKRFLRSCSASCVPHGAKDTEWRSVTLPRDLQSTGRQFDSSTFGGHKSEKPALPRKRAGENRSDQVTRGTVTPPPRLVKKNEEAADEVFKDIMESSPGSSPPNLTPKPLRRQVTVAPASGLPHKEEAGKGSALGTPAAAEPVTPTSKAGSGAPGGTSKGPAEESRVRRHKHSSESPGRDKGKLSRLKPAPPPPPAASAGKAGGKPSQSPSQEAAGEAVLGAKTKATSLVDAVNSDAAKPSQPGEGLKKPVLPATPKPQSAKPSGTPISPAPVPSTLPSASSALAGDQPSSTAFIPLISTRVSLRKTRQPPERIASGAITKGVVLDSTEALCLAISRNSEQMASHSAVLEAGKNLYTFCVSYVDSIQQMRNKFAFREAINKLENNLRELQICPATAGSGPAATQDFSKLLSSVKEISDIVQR
Sequence of Bcr/Abl fusion protein (Homo sapiens) (P11274 whole entry, looked up, the tested form may be a part): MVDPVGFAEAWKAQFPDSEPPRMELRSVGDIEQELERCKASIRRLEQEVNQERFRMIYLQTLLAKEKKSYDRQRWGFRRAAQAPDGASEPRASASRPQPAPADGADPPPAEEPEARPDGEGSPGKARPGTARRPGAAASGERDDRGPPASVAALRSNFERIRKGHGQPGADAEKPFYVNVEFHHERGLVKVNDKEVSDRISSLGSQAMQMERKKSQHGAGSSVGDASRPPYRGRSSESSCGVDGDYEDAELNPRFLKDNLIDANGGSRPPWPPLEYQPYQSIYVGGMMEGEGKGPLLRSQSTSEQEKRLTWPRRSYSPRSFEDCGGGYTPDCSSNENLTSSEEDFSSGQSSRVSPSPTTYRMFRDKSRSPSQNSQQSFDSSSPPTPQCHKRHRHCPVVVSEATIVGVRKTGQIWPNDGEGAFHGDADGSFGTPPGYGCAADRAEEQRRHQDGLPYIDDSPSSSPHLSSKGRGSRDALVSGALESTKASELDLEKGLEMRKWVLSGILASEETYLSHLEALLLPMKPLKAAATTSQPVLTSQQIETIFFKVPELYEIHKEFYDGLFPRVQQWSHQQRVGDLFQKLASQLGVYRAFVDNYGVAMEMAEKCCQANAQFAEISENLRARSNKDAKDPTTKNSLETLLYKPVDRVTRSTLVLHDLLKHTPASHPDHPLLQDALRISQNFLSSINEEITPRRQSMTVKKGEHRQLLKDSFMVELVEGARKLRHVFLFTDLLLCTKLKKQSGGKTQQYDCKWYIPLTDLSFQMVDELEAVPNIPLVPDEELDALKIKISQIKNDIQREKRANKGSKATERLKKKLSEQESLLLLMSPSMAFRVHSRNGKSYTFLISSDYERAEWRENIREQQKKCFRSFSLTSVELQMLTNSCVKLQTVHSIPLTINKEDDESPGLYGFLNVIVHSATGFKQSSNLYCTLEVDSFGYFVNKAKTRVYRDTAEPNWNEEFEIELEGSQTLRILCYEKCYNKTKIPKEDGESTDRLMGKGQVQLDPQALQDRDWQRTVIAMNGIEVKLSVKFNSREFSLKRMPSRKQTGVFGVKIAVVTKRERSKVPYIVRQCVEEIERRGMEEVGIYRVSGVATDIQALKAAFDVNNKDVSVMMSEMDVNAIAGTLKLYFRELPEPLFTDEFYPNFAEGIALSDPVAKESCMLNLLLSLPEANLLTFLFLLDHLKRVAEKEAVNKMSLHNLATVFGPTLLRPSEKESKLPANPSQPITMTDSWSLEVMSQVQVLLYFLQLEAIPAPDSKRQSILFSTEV

C#CCOc1cc(CNC(=O)c2cc(F)ccc2N2CCOCC2)ccc1OC
inhibition (Tubulin (Homo sapiens) [1]): Active | Activity [2]: Non-toxic | Activity (Tubulin (Homo sapiens) [3]): Active | Activity (Tubulin (Homo sapiens) [4]): Active | inhibition (Tubulin (Homo sapiens) [5]): Active | Ratio IC50 (HepG2 [6]): 68.3 | Activity (K562 [7]): 1.96% | pIC50 (HepG2 [8]): 5.88 | Activity (Tubulin (Homo sapiens) [9]): Active | Activity (K562 [10]): 23.78% | Activity (HepG2 [11]): Active | Activity [12]: Non-toxic | Activity [13]: Non-toxic | viability at 0.08 µM (K562 [14]): 45.4% | Activity (K562 [15]): Active | viability at 0.08 µM (K562 [16]): 92.6% | Activity (HepG2 [17]): Active | pIC50 (K562 [18]): 5.96 | inhibition (Tubulin (Homo sapiens) [19]): Active | inhibition [20]: Active | Activity (K562 [21]): 23.64% | Activity (K562 [22]): Active | Activity (Tubulin (Homo sapiens) [23]): Active | Activity (K562 [24]): Active | Activity [25]: Non-toxic | IC50 at 72 h [26]: 1420 nM | Activity (HUVEC): Active | Activity (K562 [27]): 58.6% | Activity (K562 [28]): 4.26%
